Laboratory results as given in US6551774B1, “Diagnostic methods for conditions associated with elevated cellular levels of telomerase activity” (Board of Regents, The University of Texas System, priority 1992, dated 2003).

Assays:
[1] = test system: IMR-90 human lung fibroblasts; experiment: Proliferative lifespan of IMR-90 fibroblasts fed oligonucleotides (Example 1); assay type: cell-based
Description: The efficacy of the CTO-12 oligonucleotide (5′-[…]-3′ Seq. ID No. 2) to reduce telomere shortening associated with cellular senescence (FIG. 1) was studied using target cells cultured under standard cell culture conditions in minimal essential medium supplemented with 10% fetal calf serum. The cells were subcultivated every four days by trypsinization upon reaching confluency and were fed new medium at subcultivation or every two days, whichever came first. Cells at various population doubling levels were seeded at 10,000 cells per well and fed medium containing oligonucleotides at various concentrations. oligonucleotides studied were the cytidine-rich terminal oligonucleotide (CTO-12), guanidine-rich terminal oligonucleotide-12 bp (GTO-12, having the sequence 5′-[…]-3′ (SEQ ID NO:19), and a 12 base pair randomer with a random nucleotide in every position. As an additional control, cells were fed identical medium without oligonucleotide. Cells were fed oligonucleotide every 48 hours from 10×stocks. (Such oligonucleotides may be modified to enhance stability, e.g., with phosphorothioates, dithioate and 2-O-methyl RNA.) In the case of phosphorothioates it would be desirable to use longer CTO primers such as 5′-[…]-3′(SEQ ID NO:20), 5′-[…]-3′(SEQ ID NO:21), or 5′-[…]-3′(SEQ ID NO:22). […]

[2] = test system: MDA 157 human breast cancer cells; experiment: Proliferation of MDA 157 cancer cells fed oligonucleotides (Example 2); assay type: cell-based; conditions: 1.0 μM CTO-12
Experimental: Specifically, MDA 157 human breast cancer cells with an immortal phenotype were seeded at 10,000 cells per well in 12 well tissue culture dishes and fed medium only or medium supplemented with GTO-12 (at 1.0 μM, 0.1 μM, and 0.01 μM). […] Cells fed the GTO-12 oligonucleotide, at 1.0 μM, however, ceased to proliferate after less than 10 doubling. […] The lack of effect of the G+C mixture may reflect the CTO-12 oligonucleotide, competing with or base pairing with the GTO-12 oligonucleotide, this preventing its inhibitory effect on the cancer cell telomerase.

[3] = test system: HME31E6 cells; experiment: TRF shortening in HME31E6 cells cultured with CTO (Example 10); assay type: cell-based, human; conditions: 3, 10, 30 and 100 μM, between PDL 36 and 50
Description: As in Example 1, the change in proliferative lifespan and rate of telomere shortening in cultured mammary epithelial cells treated with the indicated amounts of CTO (occasionally referred to as C-Rich Terminal Repeat (CTR)) versus control random oligonucleotides. Normal human mammary epithelial cells from a donor (31) were infected with the E6 gene of human papilloma virus 16. This gene product binds p53 protein and permits HME31 cells to have extended life span by proliferating from PDL 42 to PDL 62 when crisis occurs. During this extended lifespan period the TRFs shorten from an average of approximately 5 kb to 2.5 kb (compare in FIG. 12 HME31 PD 40 to HME31E6 PD 68).
As controls the cells were cultured without oligonucleotides (nil) or with 30 μM random oligonucleotide. […] This is most easily seen by examining the subpopulation of telomere TRFs that migrate more slowly than the rest, giving a discrete trailing band. Cells were maintained in logarithmic growth with medium changed and fresh oligonucleotide added three times per week.

[4] = test system: IMR-90 lung fibroblasts; experiment: Life span of IMR-90 lung fibroblasts treated with phosphodiester CTO (Example 11); assay type: cell-based, human
Experimental: Referring to FIG. 14, IMR-90 lung fibroblasts TRFat PDL 30 were treated with 10 μM, 30 μM or 100 μM phosphodiester CTO or with only media addition (control). The cells were cultured in medium containing regular defined supplemented calf serum. The cells were passaged in 24 well dishes and subcultivated by trypsinization upon reaching confluency at 25,000 cells per well. The cells were fed medium containing oligonucleotides at various concentrations daily. As a control, cells were fed identical medium without oligonucleotides. As is illustrated in FIG. 14, there was approximately a 12-15% extension of total life span with CTO. In these experiments the control cells divided approximately 15-18 times during the experiment, whereas the treated cells divided 23-26 times. IMR-90 telomeres shorten approximately 50 b.p. per division and the TRF length of the control IMR-90 fibroblasts at senescence was approximately 9 kb. Since the 100 μM CTO-treated IMR-90 cells senesced at PDL 55, the predicted difference in the rate of TRF loss between the control and the 100 μM CTO (9 kb vs 9.4 kb) is too small to be resolved using current techniques.

[5] = test system: HME31E6 cells; experiment: Replicative lifespan of HME31E6 cells cultured with CTR (Example 10); assay type: cell-based, human; conditions: 30 μM and 100 μM
Experimental: Human mammary epithelial cells expressing HPV16 E6 bypass M1 and have extended replicative lifespan. HME31 Cells normally senesce at PDL 42-45. When expressing […] they will bypass M1 and divide until they reach crisis (M2) at PDL 53-62. The TRFs in HME31 (E6) cells at PDL 40 are approximately 5-6 Kb while at PDL 62 they are 3-4 Kb (see FIG. 12). […] As controls, the cells were cultured without oligonucleotide (control), or with a 30 μM random oligonucleotide with the base content matched to the CTR oligonucleotide. […] The control cells divided approximately 20 times during the experiment, whereas the CTR-treated cells divided at least 40-50 times.

[6] = test system: IMR-90 SW26 cells; experiment: Cell death of IMR-90 SW26 cells on bleomycin sulfate treatment; assay type: cell-based, human; conditions: 25 μg/ml for two hours in serum free medium
Experimental: SW 26 cells enter crisis at approximately PDL 82-85. Numerous vials of SW26 cells (8×10^6 cells/vial) were frozen at PDL 71, and testing verified that spontaneous immortalization events had not yet occurred. Five vials were thawed, scaled up for 4 days to approximately 10^8 cells (thus to approximately PDL 74), then trypsinized and combined into a single pool of cells in 40 ml of medium and distributed into 200 10 cm^2 dishes. Thirty dishes were treated with 25 μg/ml bleomycin sulfate (a chemical mutagen) for two hours in serum free medium one day later.

[7] = test system: SW26 cells; experiment: Frequency of escape from crisis (immortalization) of SW26 cells, fluctuation analysis; assay type: cell-based, human; conditions: bleomycin sulfate 25 μg/ml for two hours; LNL6 infection with 2 μg/ml polybrene
Description: The frequency of escape from crisis (e.g., the immortalization frequency of T-antigen expressing cells) was estimated using an approach based on what is essentially a fluctuation analysis as previously described (Shay, J. W., and Wright, W. E. (1989) Exp. Cell Res. 184, 109-118). SW26 cells (a clone isolated from IMR 90 normal human lung fibroblasts transfected with a vector expressing SV40 large T antigen) were expanded approximately 15 PDL's before crisis into multiple series at a constant cell density of 6667 cells/cm^2. Each series was subsequently maintained as a separate culture, so that at the end of the experiment the fraction of each series that gave rise to immortal cell lines could be determined. Cultures were split at or just prior to confluence at 6667 cells/cm^2. […]
The remainder of the dishes were used as controls (70 dishes) or infected with LNL6 defective retrovirus (100 dishes). […] Within a few days after infection, all control and experimental dishes were counted and each dish contained 1-2×10^6 cells. The PDL of each dish was calculated and cells were then replated at 0.33×10^6 in 50 cm^2 dishes and maintained separately to conduct the fluctuation analysis.
Immortalization is expressed as the number of immortal lines per number of culture series, each series being derived from a single dish at the initiation of the experiment. […]

5′-CCCTAACCCTAA-3′ [CTO-12]
doublings of continued proliferation more than control cells ([1]; 1.0 μM oligonucleotide, cells seeded at PD45): approximately 10 doubling | population doubling at which replicative senescence was reached ([1]; CTO-12 at less than 1.0 μM (0.1 μM), seeded at PD45): about 52 population doubling | proliferation phenotype [2]: continued to express the immortal phenotype | TRF shortening compared to nil control and 30 μM random oligonucleotide [3]: dose related retardation of TRF shortening | number of cell divisions during the experiment ([4]; 10 μM, 30 μM or 100 μM, from PDL 30): 23-26 times | extension of total life span ([4]; 10 μM, 30 μM or 100 μM, from PDL 30, fed daily): 12-15% | PDL at senescence ([4]; 100 μM): 55 PDL | replicative lifespan compared to control and 30 μM random oligonucleotide ([5]; started at PDL 36): dose-related extension of the replicative lifespan | number of cell divisions during the experiment ([5]; started at PDL 36, defined medium without serum): 40-50 times

bleomycin sulfate
cells dying [6]: approximately 50% | Frequency (probability of obtaining an immortal cell line based on the number of cells plated at each passage) [7]: 7.7 × 10^−7 | Immortalization (number of immortal lines per number of culture series) [7]: 7/27
